Experimental data reported in US9718790B2, “Triazine derivative and pharmaceutical composition having an analgesic activity comprising the same” (SHIONOGI & CO., LTD., priority 2010, dated 2017).

Molecular target: human P2X3 receptor (Homo sapiens (Human), UniProt P56373)
Test: Evaluation of human P2X3 receptor inhibitory activity (Fluo-3 calcium fluorescence, FDSS 3000, ATP stimulation);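 note: stimulus was 50 nM ATP with fluorescence followed for 3 min, and the response per well was peak post-ATP fluorescence divided by the reading at measurement start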
Format: cell-based
Conditions: C6BU-1 cells stably expressing human P2X3 receptor, Fluo-3 fluorescence, FDSS 3000

Chain of human P2X3 receptor (P56373 whole entry): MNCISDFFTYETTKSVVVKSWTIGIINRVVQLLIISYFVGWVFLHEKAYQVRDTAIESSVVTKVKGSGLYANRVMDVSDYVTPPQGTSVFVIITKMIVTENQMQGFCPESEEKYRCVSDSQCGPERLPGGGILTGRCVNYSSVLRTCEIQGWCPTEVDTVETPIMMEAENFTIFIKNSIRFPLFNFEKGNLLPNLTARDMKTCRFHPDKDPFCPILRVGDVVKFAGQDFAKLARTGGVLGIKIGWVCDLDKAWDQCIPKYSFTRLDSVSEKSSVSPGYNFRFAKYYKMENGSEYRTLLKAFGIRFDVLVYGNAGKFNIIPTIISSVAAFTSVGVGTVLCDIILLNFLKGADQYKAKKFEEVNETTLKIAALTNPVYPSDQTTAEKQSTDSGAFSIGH

Compound: COC(=O)[C@@H](C)Cn1c(=O)[nH]/c(=N\c2ccc(N3CCCCC3)cc2)n(Cc2ccc(C)cc2)c1=O [Compound I-1085]
- IC50: 0.034 µM

Compound: COC(=O)[C@@H](C)Cn1c(=O)[nH]/c(=N\c2ccc(N3CCCC3)cc2)n(Cc2ccc(C)cc2)c1=O [Compound I-1086]
- IC50: 0.291 µM

Compound: COC(=O)[C@@H](C)Cn1c(=O)[nH]/c(=N\c2ccc(C3CCCCC3)cc2)n(Cc2ccc(C)cc2)c1=O [Compound I-1087]
- IC50: 0.071 µM

Compound: COC(=O)[C@@H](C)Cn1c(=O)[nH]/c(=N\c2cccc(C3CCCCC3)c2)n(Cc2ccc(C)cc2)c1=O [Compound I-1088]
- IC50: 0.548 µM

Compound: COC(=O)[C@@H](C)Cn1c(=O)[nH]/c(=N\c2cccc(C3CCCC3)c2)n(Cc2ccc(C)cc2)c1=O [Compound I-1089]
- IC50: 0.487 µM

Compound: COC(=O)[C@@H](C)Cn1c(=O)[nH]/c(=N\c2ccc(C3CCCC3)cc2)n(Cc2ccc(C)cc2)c1=O [Compound I-1090]
- IC50: 0.135 µM

Compound: Cc1ccc(Cn2c(=O)n(C[C@H](C)C(=O)O)c(=O)[nH]/c2=N\c2ccc(N3CCCC3)cc2)cc1 [Compound I-1091]
- IC50: 0.179 µM

Compound: CC(C)Oc1ccc(/N=c2\[nH]c(=O)n(C[C@H](C)C(=O)O)c(=O)n2Cc2ccc(I)cc2)cc1 [Compound I-1092]
- IC50: 0.069 µM

Compound: Cc1ccc(Cn2c(=O)n(C[C@H](C)C(=O)O)c(=O)[nH]/c2=N\c2ccc(N3CCCCC3)cc2)cc1 [Compound I-1093]
- IC50: 0.038 µM

Compound: COC(=O)[C@@H](C)Cn1c(=O)[nH]/c(=N\c2ccc(C=C3CCCC3)cc2)n(Cc2ccc(C)cc2)c1=O [Compound I-1094]
- IC50: 0.103 µM

Compound: COC(=O)[C@@H](C)Cn1c(=O)[nH]/c(=N\c2ccc(CC3CCCC3)cc2)n(Cc2ccc(C)cc2)c1=O [Compound I-1096]
- IC50: 0.094 µM

Compound: COC(=O)[C@@H](C)Cn1c(=O)[nH]/c(=N\c2ccc(CC3CCCC3)cc2)n(Cc2ccc(Cl)cc2)c1=O [Compound I-1097]
- IC50: 0.141 µM

Compound: Cc1ccc(Cn2c(=O)n(C[C@H](C)C(=O)O)c(=O)[nH]/c2=N\c2ccc(C=C3CCCC3)cc2)cc1 [Compound I-1098]
- IC50: 0.074 µM

Compound: C[C@@H](Cn1c(=O)[nH]/c(=N\c2ccc(C=C3CCCC3)cc2)n(Cc2ccc(Cl)cc2)c1=O)C(=O)O [Compound I-1099]
- IC50: 0.07 µM

Compound: Cc1ccc(Cn2c(=O)n(C[C@H](C)C(=O)O)c(=O)[nH]/c2=N\c2ccc(CC3CCCC3)cc2)cc1 [Compound I-1100]
- IC50: 0.043 µM

Compound: C[C@@H](Cn1c(=O)[nH]/c(=N\c2ccc(CC3CCCC3)cc2)n(Cc2ccc(Cl)cc2)c1=O)C(=O)O [Compound I-1101]
- IC50: 0.053 µM

Compound: COC(=O)[C@@H](C)Cn1c(=O)[nH]/c(=N\c2ccc3c(c2)CCCO3)n(Cc2ccc(Cl)cc2)c1=O [Compound I-1102]
- IC50: 0.148 µM

Compound: C[C@@H](Cn1c(=O)[nH]/c(=N\c2ccc3c(c2)CCCO3)n(Cc2ccc(Cl)cc2)c1=O)C(=O)O [Compound I-1103]
- IC50: 0.423 µM

Compound: COC(=O)[C@H](C)Cn1c(=O)[nH]/c(=N\c2ccc(OC(C)C)cc2)n(Cc2ccc(C)cc2)c1=O [Compound I-1104]
- IC50: 0.011 µM

Compound: Cc1ccc(Cn2c(=O)n(C[C@@H](C)C(=O)O)c(=O)[nH]/c2=N\c2ccc(OC(C)C)cc2)cc1 [Compound I-1105]
- IC50: 0.152 µM

Compound: CCOc1ccc(/N=c2\[nH]c(=O)n(C[C@@H](C)C(=O)OC)c(=O)n2Cc2ccc(C)cc2)cc1Cl [Compound I-1106]
- IC50: 0.007 µM

Compound: CCOc1ccc(/N=c2\[nH]c(=O)n(C[C@@H](C)C(=O)O)c(=O)n2Cc2ccc(C)cc2)cc1Cl [Compound I-1107]
- IC50: 0.043 µM

Compound: Cc1ccc(Cn2c(=O)n(C[C@H](C)C(=O)O)c(=O)[nH]/c2=N\c2ccc(C3CCCCC3)cc2)cc1 [Compound I-1108]
- IC50: 0.05 µM

Compound: Cc1ccc(Cn2c(=O)n(C[C@H](C)C(=O)O)c(=O)[nH]/c2=N\c2cccc(C3CCCCC3)c2)cc1 [Compound I-1109]
- IC50: 0.43 µM

Compound: Cc1ccc(Cn2c(=O)n(C[C@H](C)C(=O)O)c(=O)[nH]/c2=N\c2cccc(C3CCCC3)c2)cc1 [Compound I-1110]
- IC50: 0.397 µM

Compound: Cc1ccc(Cn2c(=O)n(C[C@H](C)C(=O)O)c(=O)[nH]/c2=N\c2ccc(C3=CCCCC3)cc2)cc1 [Compound I-1111]
- IC50: 0.161 µM

Compound: Cc1ccc(Cn2c(=O)n(C[C@H](C)C(=O)O)c(=O)[nH]/c2=N\c2cccc(C3=CCCCC3)c2)cc1 [Compound I-1112]
- IC50: 0.872 µM

Compound: Cc1ccc(Cn2c(=O)n(C[C@H](C)C(=O)O)c(=O)[nH]/c2=N\c2ccc(C3CCCC3)cc2)cc1 [Compound I-1113]
- IC50: 0.123 µM

Compound: Cc1ccc(Cn2c(=O)n(C[C@H](C)C(=O)O)c(=O)[nH]/c2=N\c2ccc(C3=CCCC3)cc2)cc1 [Compound I-1114]
- IC50: 0.214 µM

Compound: Cc1ccc(Cn2c(=O)n(C[C@H](C)C(=O)O)c(=O)[nH]/c2=N\c2cccc(C3=CCCC3)c2)cc1 [Compound I-1115]
- IC50: 0.516 µM

Compound: COC(=O)[C@@H](C)Cn1c(=O)[nH]/c(=N\c2ccc(OC3CCOCC3)nc2)n(Cc2ccc(C)cc2)c1=O [Compound I-1118]
- IC50: 0.387 µM

Compound: Cc1ccc(Cn2c(=O)n(C[C@H](C)C(=O)O)c(=O)[nH]/c2=N\c2ccc(OC3CCOCC3)nc2)cc1 [Compound I-1120]
- IC50: 0.534 µM

Compound: Cc1ccc(Cn2c(=O)n(C[C@H](C)C(=O)O)c(=O)[nH]/c2=N\c2ccc(Oc3ccncc3)cc2)cc1 [Compound I-1122]
- IC50: 0.008 µM

Compound: Cc1ccc(Cn2c(=O)n(C[C@H](C)C(=O)O)c(=O)[nH]/c2=N\c2ccc(Oc3cccnc3)cc2)cc1 [Compound I-1123]
- IC50: 0.014 µM

Compound: COC(=O)[C@@H](C)Cn1c(=O)[nH]/c(=N\c2ccc(Oc3ccncc3)cc2)n(Cc2ccc(C)cc2)c1=O [Compound I-1125]
- IC50: 0.004 µM

Compound: COC(=O)[C@@H](C)Cn1c(=O)[nH]/c(=N\c2ccc(Oc3cccnc3)cc2)n(Cc2ccc(C)cc2)c1=O [Compound I-1126]
- IC50: 0.008 µM

Compound: COC(=O)[C@@H](C)Cn1c(=O)[nH]/c(=N\c2ccc(OC(C)C)c(O)c2)n(Cc2ccc(C)cc2)c1=O [Compound I-1128]
- IC50: 0.021 µM

Compound: COC(=O)[C@@H](C)Cn1c(=O)[nH]/c(=N\c2ccc(OC(C)C)c(OC)c2)n(Cc2ccc(C)cc2)c1=O [Compound I-1129]
- IC50: 0.011 µM

Compound: COC(=O)[C@@H](C)Cn1c(=O)[nH]/c(=N\c2ccc(OC(C)C)c(OC(C)C)c2)n(Cc2ccc(C)cc2)c1=O [Compound I-1130]
- IC50: 0.133 µM

Compound: C=Cc1ccc(Cn2c(=O)n(C[C@H](C)C(=O)OC)c(=O)[nH]/c2=N\c2ccc(OC(C)C)cc2)cc1 [Compound I-1131]
- IC50: 0.105 µM

Compound: COC(=O)[C@@H](C)Cn1c(=O)[nH]/c(=N\c2cccc(CC(C)C)c2)n(Cc2ccc(C)cc2)c1=O [Compound I-1132]
- IC50: 0.586 µM

Compound: CCc1ccc(Cn2c(=O)n(C[C@H](C)C(=O)OC)c(=O)[nH]/c2=N\c2ccc(OC(C)C)cc2)cc1 [Compound I-1133]
- IC50: 0.051 µM

Compound: Cc1ccc(Cn2c(=O)n(C[C@H](C)C(=O)O)c(=O)[nH]/c2=N\c2ccc(OC(C)C)c(O)c2)cc1 [Compound I-1134]
- IC50: 0.035 µM

Compound: COc1cc(/N=c2\[nH]c(=O)n(C[C@H](C)C(=O)O)c(=O)n2Cc2ccc(C)cc2)ccc1OC(C)C [Compound I-1135]
- IC50: 0.018 µM

Compound: Cc1ccc(Cn2c(=O)n(C[C@H](C)C(=O)O)c(=O)[nH]/c2=N\c2ccc(OC(C)C)c(OC(C)C)c2)cc1 [Compound I-1136]
- IC50: 0.204 µM

Compound: Cc1ccc(Cn2c(=O)n(C[C@H](C)C(=O)O)c(=O)[nH]/c2=N\c2cccc(CC(C)C)c2)cc1 [Compound I-1137]
- IC50: 0.678 µM

Compound: C=Cc1ccc(Cn2c(=O)n(C[C@H](C)C(=O)O)c(=O)[nH]/c2=N\c2ccc(OC(C)C)cc2)cc1 [Compound I-1139]
- IC50: 0.052 µM

Compound: CCc1ccc(Cn2c(=O)n(C[C@H](C)C(=O)O)c(=O)[nH]/c2=N\c2ccc(OC(C)C)cc2)cc1 [Compound I-1140]
- IC50: 0.044 µM

Compound: C/C=C/c1ccc(Cn2c(=O)n(C[C@H](C)C(=O)OC)c(=O)[nH]/c2=N\c2ccc(OC(C)C)cc2)cc1 [Compound I-1141]
- IC50: 0.911 µM

Compound: C/C=C\c1ccc(Cn2c(=O)n(C[C@H](C)C(=O)OC)c(=O)[nH]/c2=N\c2ccc(OC(C)C)cc2)cc1 [Compound I-1142]
- IC50: 0.802 µM

Compound: CCCc1ccc(Cn2c(=O)n(C[C@H](C)C(=O)OC)c(=O)[nH]/c2=N\c2ccc(OC(C)C)cc2)cc1 [Compound I-1144]
- IC50: 0.764 µM

Compound: CCOC(=O)CCn1c(=O)[nH]/c(=N\c2ccc(OCC3CC3)cc2)n(Cc2ccc(C)cc2)c1=O [Compound I-1146]
- IC50: 0.009 µM

Compound: CCOC(=O)CCn1c(=O)[nH]/c(=N\c2ccc(OCC3CC3)cc2)n(Cc2ccc(Cl)cc2)c1=O [Compound I-1147]
- IC50: 0.01 µM

Compound: Cc1ccc(Cn2c(=O)n(CCC(=O)O)c(=O)[nH]/c2=N\c2ccc(OCC3CC3)cc2)cc1 [Compound I-1148]
- IC50: 0.086 µM

Compound: C/C=C\c1ccc(Cn2c(=O)n(C[C@H](C)C(=O)O)c(=O)[nH]/c2=N\c2ccc(OC(C)C)cc2)cc1 [Compound I-1150]
- IC50: 0.551 µM

Compound: COC(=O)[C@@H](C)Cn1c(=O)[nH]/c(=N\c2cccc(SC)c2)n(Cc2ccc(Cl)cc2)c1=O [Compound I-1151]
- IC50: 0.046 µM

Compound: CSc1cccc(/N=c2\[nH]c(=O)n(C[C@H](C)C(=O)O)c(=O)n2Cc2ccc(Cl)cc2)c1 [Compound I-1152]
- IC50: 0.11 µM

Compound: COC(=O)[C@@H](C)Cn1c(=O)[nH]/c(=N\c2cccc(SC)c2)n(Cc2ccc(C)cc2)c1=O [Compound I-1153]
- IC50: 0.071 µM

Compound: CSc1cccc(/N=c2\[nH]c(=O)n(C[C@H](C)C(=O)O)c(=O)n2Cc2ccc(C)cc2)c1 [Compound I-1154]
- IC50: 0.131 µM

Compound: CCOC(=O)CCn1c(=O)[nH]/c(=N\c2ccc(OC(C)C)c(C)c2)n(Cc2ccc(Cl)cc2)c1=O [Compound I-1155]
- IC50: 0.009 µM

Compound: CCOC(=O)CCn1c(=O)[nH]/c(=N\c2ccc(OC(C)C)c(C)c2)n(Cc2ccc(C)cc2)c1=O [Compound I-1156]
- IC50: 0.006 µM

Compound: Cc1cc(/N=c2\[nH]c(=O)n(CCC(=O)O)c(=O)n2Cc2ccc(Cl)cc2)ccc1OC(C)C [Compound I-1157]
- IC50: 0.052 µM

Compound: Cc1ccc(Cn2c(=O)n(CCC(=O)O)c(=O)[nH]/c2=N\c2ccc(OC(C)C)c(C)c2)cc1 [Compound I-1158]
- IC50: 0.063 µM

Compound: C/C=C/c1ccc(Cn2c(=O)n(C[C@H](C)C(=O)O)c(=O)[nH]/c2=N\c2ccc(OC(C)C)cc2)cc1 [Compound I-1160]
- IC50: 0.973 µM

Compound: Cc1ccc(Cn2c(=O)n(C[C@H](C)C(=O)O)c(=O)[nH]/c2=N\c2ccc(OC(F)F)cc2)cc1 [Compound I-1161]
- IC50: 0.148 µM
